In PubChem BioAssay (NCI):
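Growth conditions: 96-well plates. Treatment: test compound, 48 hours, 5 concentrations. Analysis: linear interpolation between bracketing concentrations; unreached endpoints set to highest concentration. GI50 = concentration required for 50% inhibition of growth. TGI denotes the concentration required for complete inhibition of growth.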

system: DU-145 prostate; assay: NCI anticancer screen, dose series, 48 h

Structure (SMILES) | GI50 [µM] | TGI [µM]
OC(c1cc2cc(Cl)ccc2c2cc(C(F)(F)F)ccc12)C1CCCCN1 (configuration not stated) | 1.9 | 3.37
COc1ccc(-c2c(C#N)c(N3CCOCC3)nc3[nH]c(=S)[nH]c(=S)c23)cc1OC | 58.7 | > 100
Cc1ccsc1/C=N/Nc1cnccn1 |  | > 100
NC(N)=Nc1nc2ccccc2o1 | > 100 | > 100
COc1cc(/C=C2\CCCCC3=C2N=C2SC(C)=CN2C3c2cc(OC)c(OC)c(OC)c2)cc(OC)c1OC (configuration not stated) | > 100 | > 100

system: HT29 colon; assay: NCI anticancer screen, dose series, 48 h

Structure (SMILES) | TGI [µM] | GI50 [µM]
Cc1ccsc1/C=N/Nc1cnccn1 | > 100 | 
NC(N)=Nc1nc2ccccc2o1 | > 100 | > 100
COc1cc(/C=C2\CCCCC3=C2N=C2SC(C)=CN2C3c2cc(OC)c(OC)c(OC)c2)cc(OC)c1OC (configuration not stated) | > 100 | > 100

system: PC-3 prostate; assay: NCI anticancer screen, dose series, 48 h

Structure (SMILES) | GI50 [µM] | TGI [µM]
COc1ccc(-c2c(C#N)c(N3CCOCC3)nc3[nH]c(=S)[nH]c(=S)c23)cc1OC | 40.3 | > 100
Cc1ccsc1/C=N/Nc1cnccn1 |  | > 100
NC(N)=Nc1nc2ccccc2o1 | > 100 | > 100

system: NCI-H460 lung; assay: NCI anticancer screen, dose series, 48 h

Structure (SMILES) | GI50 [µM] | TGI [µM]
COc1ccc(-c2c(C#N)c(N3CCOCC3)nc3[nH]c(=S)[nH]c(=S)c23)cc1OC | 27.7 | > 100
NC(N)=Nc1nc2ccccc2o1 | > 100 | > 100
COc1cc(/C=C2\CCCCC3=C2N=C2SC(C)=CN2C3c2cc(OC)c(OC)c(OC)c2)cc(OC)c1OC (configuration not stated) | 96.1 | > 100

system: T-47D breast; assay: NCI anticancer screen, dose series, 48 h

Structure (SMILES) | TGI [µM] | GI50 [µM]
Cc1ccsc1/C=N/Nc1cnccn1 | > 100 | 
NC(N)=Nc1nc2ccccc2o1 | > 100 | > 100
COc1cc(/C=C2\CCCCC3=C2N=C2SC(C)=CN2C3c2cc(OC)c(OC)c(OC)c2)cc(OC)c1OC (configuration not stated) | > 100 | 0.566

system: TK-10 renal; assay: NCI anticancer screen, dose series, 48 h

Structure (SMILES) | GI50 [µM] | TGI [µM]
COc1ccc(-c2c(C#N)c(N3CCOCC3)nc3[nH]c(=S)[nH]c(=S)c23)cc1OC | 34.5 | > 100
Cc1ccsc1/C=N/Nc1cnccn1 |  | > 100
NC(N)=Nc1nc2ccccc2o1 | > 100 | > 100
COc1cc(/C=C2\CCCCC3=C2N=C2SC(C)=CN2C3c2cc(OC)c(OC)c(OC)c2)cc(OC)c1OC (configuration not stated) | 22.4 | > 100

system: UACC-257 melanoma; assay: NCI anticancer screen, dose series, 48 h

Structure (SMILES) | GI50 [µM] | TGI [µM]
COc1ccc(-c2c(C#N)c(N3CCOCC3)nc3[nH]c(=S)[nH]c(=S)c23)cc1OC | > 100 | > 100
Cc1ccsc1/C=N/Nc1cnccn1 |  | > 100
NC(N)=Nc1nc2ccccc2o1 | 21.2 | > 100
COc1cc(/C=C2\CCCCC3=C2N=C2SC(C)=CN2C3c2cc(OC)c(OC)c(OC)c2)cc(OC)c1OC (configuration not stated) | 0.403 | > 100

system: UO-31 renal; assay: NCI anticancer screen, dose series, 48 h

Structure (SMILES) | GI50 [µM] | TGI [µM]
OC(c1cc2cc(Cl)ccc2c2cc(C(F)(F)F)ccc12)C1CCCCN1 (configuration not stated) | 1.59 | 3.06
COc1ccc(-c2c(C#N)c(N3CCOCC3)nc3[nH]c(=S)[nH]c(=S)c23)cc1OC | 82.1 | > 100
Cc1ccsc1/C=N/Nc1cnccn1 |  | > 100
NC(N)=Nc1nc2ccccc2o1 | 79.4 | > 100
COc1cc(/C=C2\CCCCC3=C2N=C2SC(C)=CN2C3c2cc(OC)c(OC)c(OC)c2)cc(OC)c1OC (configuration not stated) | 22.6 | > 100

system: HOP-92 NSCLC; assay: NCI anticancer screen, dose series, 48 h

Structure (SMILES) | GI50 [µM] | TGI [µM]
OC(c1cc2cc(Cl)ccc2c2cc(C(F)(F)F)ccc12)C1CCCCN1 (configuration not stated) | 1.42 | 2.97
COc1ccc(-c2c(C#N)c(N3CCOCC3)nc3[nH]c(=S)[nH]c(=S)c23)cc1OC | 48.2 | > 100
Cc1ccsc1/C=N/Nc1cnccn1 |  | > 100
NC(N)=Nc1nc2ccccc2o1 | > 100 | > 100
COc1cc(/C=C2\CCCCC3=C2N=C2SC(C)=CN2C3c2cc(OC)c(OC)c(OC)c2)cc(OC)c1OC (configuration not stated) | 0.609 | > 100

system: BT-549 breast; assay: NCI anticancer screen, dose series, 48 h

Structure (SMILES) | GI50 [µM] | TGI [µM]
COc1ccc(-c2c(C#N)c(N3CCOCC3)nc3[nH]c(=S)[nH]c(=S)c23)cc1OC | 32.2 | > 100
Cc1ccsc1/C=N/Nc1cnccn1 |  | > 100
NC(N)=Nc1nc2ccccc2o1 | > 100 | > 100
COc1cc(/C=C2\CCCCC3=C2N=C2SC(C)=CN2C3c2cc(OC)c(OC)c(OC)c2)cc(OC)c1OC (configuration not stated) | 1.15 | > 100

system: HCC-2998 colon; assay: NCI anticancer screen, dose series, 48 h

Structure (SMILES) | GI50 [µM] | TGI [µM]
COc1ccc(-c2c(C#N)c(N3CCOCC3)nc3[nH]c(=S)[nH]c(=S)c23)cc1OC | 36 | > 100
Cc1ccsc1/C=N/Nc1cnccn1 |  | > 100
COc1cc(/C=C2\CCCCC3=C2N=C2SC(C)=CN2C3c2cc(OC)c(OC)c(OC)c2)cc(OC)c1OC (configuration not stated) | 74 | > 100

system: HCT-116 colon; assay: NCI anticancer screen, dose series, 48 h

Structure (SMILES) | GI50 [µM] | TGI [µM]
COc1ccc(-c2c(C#N)c(N3CCOCC3)nc3[nH]c(=S)[nH]c(=S)c23)cc1OC | 27.8 | > 100
Cc1ccsc1/C=N/Nc1cnccn1 |  | > 100
NC(N)=Nc1nc2ccccc2o1 | > 100 | > 100
COc1cc(/C=C2\CCCCC3=C2N=C2SC(C)=CN2C3c2cc(OC)c(OC)c(OC)c2)cc(OC)c1OC (configuration not stated) | 7.32 | > 100

system: HL-60(TB) leukemia; assay: NCI anticancer screen, dose series, 48 h

Structure (SMILES) | GI50 [µM] | TGI [µM]
OC(c1cc2cc(Cl)ccc2c2cc(C(F)(F)F)ccc12)C1CCCCN1 (configuration not stated) | 1.92 | 3.72
COc1ccc(-c2c(C#N)c(N3CCOCC3)nc3[nH]c(=S)[nH]c(=S)c23)cc1OC | 36.2 | > 100
Cc1ccsc1/C=N/Nc1cnccn1 |  | > 100
NC(N)=Nc1nc2ccccc2o1 | > 100 | > 100
COc1cc(/C=C2\CCCCC3=C2N=C2SC(C)=CN2C3c2cc(OC)c(OC)c(OC)c2)cc(OC)c1OC (configuration not stated) | 19.5 | > 100

system: SNB-19 CNS; assay: NCI anticancer screen, dose series, 48 h

Structure (SMILES) | GI50 [µM] | TGI [µM]
COc1ccc(-c2c(C#N)c(N3CCOCC3)nc3[nH]c(=S)[nH]c(=S)c23)cc1OC | > 100 | > 100
Cc1ccsc1/C=N/Nc1cnccn1 |  | > 100
NC(N)=Nc1nc2ccccc2o1 | > 100 | > 100
COc1cc(/C=C2\CCCCC3=C2N=C2SC(C)=CN2C3c2cc(OC)c(OC)c(OC)c2)cc(OC)c1OC (configuration not stated) | > 100 | > 100
